Data from patent publication US20260306460A1, “COMPOSITION FOR REMOVING AND INHIBITING SENESCENT CELLS, AND USES THEREOF” (LIFECEUTIX CO., LTD., priority 2023, published 2026).

Columns and labels:
[1] = system: carbon tetrachloride-induced liver fibrosis mice; assay: Carbon tetrachloride-induced liver fibrosis mice, Example 31, Table 57; type: in vivo, mouse; settings: CCl4-induced liver fibrosis mice, untreated = 100%
Experimental: (§1) The control group was administered only the solution in the same volume. After the end of drug administration, the method described in each example below was performed. Liver, kidney, skin, knee joint, heart, and femur tissues were collected from mice in which natural aging was induced in the same manner as in Examples 7-2 and 7-6 of WO2023-085787 A1. Lung tissues were collected from mice in which pulmonary fibrosis was induced using the same method as in Example 24-1. Liver tissues were collected from mice in which hepatic fibrosis was induced using the same method as in Example 26, and total RNA was extracted. qRT-PCR was performed and analyzed using the synthesized cDNA. […] The mRNA amounts of p16, MMP3, and IL6 after natural aging was induced were calculated as 100% and compared with the mRNA amounts of p16, MMP3, and IL6 after treatment with the test compound. In addition, an open field test for the analysis of aging-related frailty, agtr1a mRNA analysis for kidney damage and disease evaluation, col1a1 and SDF1 mRNA analysis for skin aging evaluation such as wrinkles/loss of elasticity/hyperpigmentation, col2a1 mRNA analysis for evaluating joint aging such as osteoarthritis, sur2a mRNA analysis for evaluating cardiac aging such as decreased cardiac load resistance, ctsk mRNA analysis for evaluating bone diseases due to aging such as osteoporosis, muscle tissue weight for analyzing sarcopenia, fat tissue weight for analyzing lipoatrophy, and cataract incidence analysis were performed in mice. For cataract incidence analysis, the drug was administered twice a week under the conditions specified above, and biweekly examinations were conducted until death.

[2] = system: senescent cells; assay: Viability of senescent cells (CellTiter-Glo), Example 17, Table 13; settings: Homo sapiens, read-out: Survival (%)
Experimental: Cells induced to undergo senescence by doxorubicin treatment were treated with test compound at designated concentrations and measured using the CellTiter-Glo Luminescent Cell Viability Assay (Promega).

[3] = system: senescent A549 cells; assay: Viability of senescent A549 cells (CellTiter-Glo), Example 18, Table 15; settings: Homo sapiens, A549, read-out: Survival (%)
Experimental: Senescence-induced cancer cells treated with doxorubicin were treated with the test compound at designated concentrations, and cell viability was measured using the CellTiter-Glo Luminescent Cell Viability Assay (Promega).

[4] = system: bleomycin-induced pulmonary fibrosis mice; assay: Bleomycin-induced pulmonary fibrosis mice, Example 31, Table 56; type: in vivo, mouse; settings: untreated = 100%
Experimental: as §1
The table below quantitatively presents the evaluation results for each item in mice with bleomycin-induced pulmonary fibrosis, untreated and treated with the test compound.

[5] = system: naturally aged mice; assay: Anti-aging evaluation in naturally aged mice, Example 31, Table 55; type: in vivo, mouse; settings: for Femur Ctsk mRNA / Kidney Agtr1a mRNA / Liver IL6 mRNA / Liver MMP3 mRNA / Liver p16 mRNA / Open Field Test Time in Center: untreated = 100%; for Heart Sur2a mRNA / Joint Col2a1 mRNA / Skin Col1a1 mRNA / Skin SDF1 mRNA: untreated = 1.0; for Muscle Mass: untreated 0.64 g; for Fat Mass: untreated 0.82 g; for Cataract incidence: untreated 83%;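 on all read-outs here: Vehicle-dosed control mice received solution alone at matching volume, values compare test-compound-treated aged mice against that control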

SMILES	Liver p16 mRNA [1]	Col1a1 mRNA [1]	viability at 1.1 µM [2]	viability at 10 µM [2]	viability at 1.1 µM [3]	viability at 10 µM [3]	Lung p16 mRNA [4]	Col1a1 mRNA [4]	Femur Ctsk mRNA [5]	Heart Sur2a mRNA [5]	Joint Col2a1 mRNA [5]	Kidney Agtr1a mRNA [5]	Liver IL6 mRNA [5]	Liver MMP3 mRNA [5]	Liver p16 mRNA [5]	Open Field Test Time in Center [5]	Skin Col1a1 mRNA [5]	Skin SDF1 mRNA [5]	Muscle Mass [5]	Fat Mass [5]	also measured
CC1(C)[C@H]2COc3ccc4ccccc4c3[C@H]2N=C2SC(c3ccccc3)=C(c3ccccc3)N21 [LX-5201]	64 (±8.4) %	59 (±8.7) %	102%	88.3%	102%	61.5%	75 (±4.2) %	74 (±6.3) %	53%	1.5 fold	1.9 fold	58%	43%	67%	58%	168%	2.1 Fold	2.3 fold	0.77 g	0.97 g	viability at 30 µM [2]: 37.7%; viability at 30 µM [3]: 3.8%; Cataract incidence [5]: 49%
O=C1C2CCN(CC2)C1(CO)COCc1ccccc1 (stereo not shown) [LX-5711]	63 (±4.3) %	74 (±3.0) %	95.1%	63.7%	89%	52.5%	70 (±3.8) %	71 (±4.0) %	62%	2.3 fold	2.3 fold	63%	48%	61%	65%	191%	1.5 Fold	1.8 fold	0.68 g	0.93 g	viability at 30 µM [2]: 20.6%; viability at 30 µM [3]: 11.9%; Cataract incidence [5]: 72%
Nc1ccc(/C=C/C(=O)NCc2cc3cc(-c4ccc(C(=O)N5CCC(F)(F)CC5)cc4)cc(-c4ccc(F)cc4)c3o2)cn1 [LX-8812, Padnarsertib]	63 (±3.9) %	64 (±3.1) %	94.6%	49.3%	100%	61.6%	67 (±5.6) %	77 (±6.2) %	62%	2.0 fold	2.6 fold	51%	53%	42%	59%	188%	3.4 Fold	2.9 fold	0.70 g	0.96 g	viability at 30 µM [2]: 29.2%; viability at 30 µM [3]: 24.9%; Cataract incidence [5]: 54%
CCN(CC1C(=O)C2CCN1CC2)C(=O)C(Cl)(Cl)Cl (stereo not shown) [LX-5702]	72 (±3.9) %	65 (±7.2) %	97.5%	5.2%	91.8%	38.1%	61 (±6.2) %	68 (±7.5) %	61%	2.5 fold	2.4 fold	49%	49%	55%	47%	211%	1.8 Fold	2.0 fold	0.70 g	0.85 g	viability at 30 µM [3]: 3.9%; Cataract incidence [5]: 66%
[2H]C([2H])([2H])OCC1(CO)C(=O)C2CCN1CC2 (stereo not shown) [LX-5721]	52 (±9.6) %	80 (±9.3) %	98.5%	45.5%	106%	17.8%	65 (±5.6) %	78 (±4.7) %	63%	2.7 fold	2.0 fold	59%	54%	72%	41%	218%	1.7 Fold	1.7 fold	0.68 g	0.97 g	viability at 30 µM [2]: 13.4%; Cataract incidence [5]: 71%
NC(=O)c1ncn([C@@H]2O[C@H](CO)[C@@H](O)[C@H]2O)n1 [LX-6537, Ribavirin]	77 (±5.7) %	81 (±4.1) %	90.9%	67.3%	102%	66.8%	64 (±3.2) %	67 (±3.9) %	67%	1.6 fold	2.2 fold	73%	48%	67%	74%	177%	1.9 Fold	1.4 fold	0.68 g	0.85 g	viability at 30 µM [2]: 12.2%; viability at 30 µM [3]: 2.4%; Cataract incidence [5]: 72%
